The target of one data set is T1, JMJD2E (Homo sapiens, UniProt B2RXH2).
T1 construct: purchased DiscoverX KINOMEscan (kinases); BPS Bioscience (epigenetic targets)
The experiment in a line: Epigenetics selectivity panel (BPS Bioscience). It is filed as biochemical.

The next data set deals with 1205-LU. As to the kind of experiment: Cell proliferation assay (MTS). It counts as cell-based. Conditions: Homo sapiens, Melanoma.
A further data set concerns the target T2, BRDT(BD1) (Homo sapiens, UniProt Q58F21).
T2 construct: purchased DiscoverX KINOMEscan (kinases); BPS Bioscience (epigenetic targets)
The experiment in a line: Epigenetics selectivity panel (BPS Bioscience). It counts as binding.

Another data set has as its target T3, JMJD2C (Homo sapiens, UniProt Q9H3R0).
T3 construct: purchased DiscoverX KINOMEscan (kinases); BPS Bioscience (epigenetic targets)
As to the kind of experiment: Epigenetics selectivity panel (BPS Bioscience). It counts as biochemical.

For another data set, the target named is T4, BRD4(BD1+BD2) (Homo sapiens, UniProt O60885).
T4 construct: BRD2(BD1+BD2), BRD4(BD1+BD2), BRDT(BD1); purchased BPS Bioscience (contract panel)
The experiment in a line: Epigenetics selectivity panel (BPS Bioscience). It counts as binding.

In another data set the target is T5, DNMT3A (Homo sapiens, UniProt Q9Y6K1).
T5 construct: purchased BPS Bioscience (contract panel)
The experiment in a line: Epigenetics selectivity panel (BPS Bioscience). It is filed as biochemical.

The target in another data set is T6, TRIM24 (Homo sapiens, UniProt O15164).
T6 construct: purchased DiscoverX KINOMEscan (kinases); BPS Bioscience (epigenetic targets)
The experiment in a line: Epigenetics selectivity panel (BPS Bioscience). It counts as binding.

The target in the next data set is T7, GLP (Homo sapiens, UniProt Q9H9B1).
T7 construct: purchased BPS Bioscience (contract panel)
T7 sequence (Q9H9B1 1-1298): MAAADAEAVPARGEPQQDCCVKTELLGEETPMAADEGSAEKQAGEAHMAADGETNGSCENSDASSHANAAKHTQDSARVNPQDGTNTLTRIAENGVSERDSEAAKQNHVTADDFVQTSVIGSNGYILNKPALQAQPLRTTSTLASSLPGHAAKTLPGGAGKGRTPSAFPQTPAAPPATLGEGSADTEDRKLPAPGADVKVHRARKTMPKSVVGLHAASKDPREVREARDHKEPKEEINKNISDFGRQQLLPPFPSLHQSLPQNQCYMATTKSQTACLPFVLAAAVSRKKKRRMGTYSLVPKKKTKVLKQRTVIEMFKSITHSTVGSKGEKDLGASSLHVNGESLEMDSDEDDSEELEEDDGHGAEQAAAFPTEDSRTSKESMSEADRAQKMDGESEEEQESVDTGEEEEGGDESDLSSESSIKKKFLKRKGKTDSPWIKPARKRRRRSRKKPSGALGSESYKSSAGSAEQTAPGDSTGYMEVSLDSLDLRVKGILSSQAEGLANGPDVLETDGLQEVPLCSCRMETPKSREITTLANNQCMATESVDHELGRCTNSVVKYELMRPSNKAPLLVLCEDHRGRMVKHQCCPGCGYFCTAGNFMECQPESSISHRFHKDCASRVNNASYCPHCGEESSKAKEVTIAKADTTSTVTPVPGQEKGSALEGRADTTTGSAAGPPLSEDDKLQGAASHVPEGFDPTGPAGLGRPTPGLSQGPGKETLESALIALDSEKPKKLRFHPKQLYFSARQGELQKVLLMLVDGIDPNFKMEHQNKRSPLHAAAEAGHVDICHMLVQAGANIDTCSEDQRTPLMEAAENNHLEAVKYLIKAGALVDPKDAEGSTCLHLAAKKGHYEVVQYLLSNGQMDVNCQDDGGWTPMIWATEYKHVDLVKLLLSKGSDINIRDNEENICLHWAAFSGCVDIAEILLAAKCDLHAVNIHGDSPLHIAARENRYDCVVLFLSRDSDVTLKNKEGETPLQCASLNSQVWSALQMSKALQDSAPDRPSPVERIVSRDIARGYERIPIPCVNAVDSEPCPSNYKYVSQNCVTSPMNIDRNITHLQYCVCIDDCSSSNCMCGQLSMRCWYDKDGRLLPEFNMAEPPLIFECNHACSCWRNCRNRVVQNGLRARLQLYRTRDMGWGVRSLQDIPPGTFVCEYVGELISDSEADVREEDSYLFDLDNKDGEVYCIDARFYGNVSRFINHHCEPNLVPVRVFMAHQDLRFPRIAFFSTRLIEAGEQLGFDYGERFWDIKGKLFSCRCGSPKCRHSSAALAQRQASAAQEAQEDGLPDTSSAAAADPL
As to the kind of experiment: Epigenetics selectivity panel (BPS Bioscience). It counts as biochemical. Conditions: for IC50: chemiluminescence assay carried out at BPS.

The target of another data set is T8, cytochrome P450 1A2 (Homo sapiens, UniProt P05177).
T8 construct: tissue BD Gentest; host or cells: human liver microsomes
As to the kind of experiment: CYP inhibition in human liver microsomes. It is filed as in vitro ADME. Particulars: 10 µM. How it is done:
Positive control was obtained in the presence of the vehicle of the compounds. Negative control was obtained in the absence of HDAC enzyme activity. A best fit curve was fitted using GraphPad Prism 5 to derive the half maximal inhibitory concentration (IC50) from this curve. Results are the average of two […]
3A4) was evaluated in human liver microsomes at Wuxi (http://www.wuxi.com/). Test compounds (10 µM) and the corresponding substrates for each P450 isoform (20 µL) were incubated with 140 µL liver […]
reaction was terminated by adding 400 µL cold stop solution (200 ng/mL tolbutamide in ACN) and samples were centrifuged at 4000 rpm for 20 minutes. Supernatants were analyzed by LC-MS/MS (Shimadzu LC 20-AD - API 4000), using peak area ratio of analyte/internal standard. Test compounds and positive controls were tested in duplicates. The percentage of inhibition was calculated as the ratio of substrate metabolite detected in treated and non-treated wells.
This study was conducted by Equilibrium Dialysis at Wuxi (http://www.wuxi.com/). HT-Dialysis plate (Model HTD 96 b, Cat# 1006) and the dialysis membrane (molecular weight cut off 12-14 kDa, Cat# 1101) were purchased from HT Dialysis LLC (Gales Ferry, CT). Human plasma and CD-1 mouse plasma from Bioreclamation were thawed prior to experiment and the pH was adjusted at 7.4. […]
Results are the average of three replicates. […]
In general terms: Liver microsomes are a subcellular fraction often used to study metabolism.

The target in the next data set is T9, ATAD2A (Homo sapiens, UniProt Q6PL18).
T9 construct: purchased DiscoverX KINOMEscan (kinases); BPS Bioscience (epigenetic targets)
The experiment in a line: Epigenetics selectivity panel (BPS Bioscience). It counts as binding.

Another data set deals with T10, PRMT5 (Homo sapiens, UniProt O14744).
T10 construct: purchased DiscoverX KINOMEscan (kinases); BPS Bioscience (epigenetic targets)
As to the kind of experiment: Epigenetics selectivity panel (BPS Bioscience). It counts as biochemical.

Values joined by “and” are separate entries in the source; they are usually repeats but may differ in a detail not shown here. Equal values may be shown once.

T10 sequence (O14744 whole entry): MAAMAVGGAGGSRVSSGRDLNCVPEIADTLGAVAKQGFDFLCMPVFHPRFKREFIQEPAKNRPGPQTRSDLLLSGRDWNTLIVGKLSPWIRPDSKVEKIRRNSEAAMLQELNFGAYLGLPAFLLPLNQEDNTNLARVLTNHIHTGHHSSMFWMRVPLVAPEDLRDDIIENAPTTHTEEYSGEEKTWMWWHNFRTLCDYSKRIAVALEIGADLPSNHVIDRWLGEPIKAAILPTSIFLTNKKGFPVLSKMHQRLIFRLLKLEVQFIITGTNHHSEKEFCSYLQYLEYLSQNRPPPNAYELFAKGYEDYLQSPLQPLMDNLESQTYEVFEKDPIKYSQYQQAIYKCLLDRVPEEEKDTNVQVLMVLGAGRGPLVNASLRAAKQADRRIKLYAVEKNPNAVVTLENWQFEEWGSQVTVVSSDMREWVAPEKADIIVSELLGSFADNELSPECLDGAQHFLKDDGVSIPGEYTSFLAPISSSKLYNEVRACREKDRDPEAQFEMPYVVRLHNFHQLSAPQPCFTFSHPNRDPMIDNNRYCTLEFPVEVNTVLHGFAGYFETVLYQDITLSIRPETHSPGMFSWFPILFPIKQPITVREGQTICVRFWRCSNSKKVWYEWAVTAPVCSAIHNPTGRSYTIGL
T10 sequence (Q9BQA1 whole entry partner): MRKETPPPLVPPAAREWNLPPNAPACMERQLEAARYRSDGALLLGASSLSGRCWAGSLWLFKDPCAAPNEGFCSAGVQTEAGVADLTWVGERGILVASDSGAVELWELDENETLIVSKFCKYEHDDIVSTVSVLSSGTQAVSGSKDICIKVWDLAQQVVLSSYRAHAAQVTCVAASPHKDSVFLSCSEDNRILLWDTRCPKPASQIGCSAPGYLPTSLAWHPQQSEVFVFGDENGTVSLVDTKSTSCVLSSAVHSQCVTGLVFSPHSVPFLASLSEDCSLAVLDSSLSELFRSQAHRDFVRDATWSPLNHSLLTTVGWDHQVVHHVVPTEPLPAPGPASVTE
T9 sequence (Q6PL18 whole entry): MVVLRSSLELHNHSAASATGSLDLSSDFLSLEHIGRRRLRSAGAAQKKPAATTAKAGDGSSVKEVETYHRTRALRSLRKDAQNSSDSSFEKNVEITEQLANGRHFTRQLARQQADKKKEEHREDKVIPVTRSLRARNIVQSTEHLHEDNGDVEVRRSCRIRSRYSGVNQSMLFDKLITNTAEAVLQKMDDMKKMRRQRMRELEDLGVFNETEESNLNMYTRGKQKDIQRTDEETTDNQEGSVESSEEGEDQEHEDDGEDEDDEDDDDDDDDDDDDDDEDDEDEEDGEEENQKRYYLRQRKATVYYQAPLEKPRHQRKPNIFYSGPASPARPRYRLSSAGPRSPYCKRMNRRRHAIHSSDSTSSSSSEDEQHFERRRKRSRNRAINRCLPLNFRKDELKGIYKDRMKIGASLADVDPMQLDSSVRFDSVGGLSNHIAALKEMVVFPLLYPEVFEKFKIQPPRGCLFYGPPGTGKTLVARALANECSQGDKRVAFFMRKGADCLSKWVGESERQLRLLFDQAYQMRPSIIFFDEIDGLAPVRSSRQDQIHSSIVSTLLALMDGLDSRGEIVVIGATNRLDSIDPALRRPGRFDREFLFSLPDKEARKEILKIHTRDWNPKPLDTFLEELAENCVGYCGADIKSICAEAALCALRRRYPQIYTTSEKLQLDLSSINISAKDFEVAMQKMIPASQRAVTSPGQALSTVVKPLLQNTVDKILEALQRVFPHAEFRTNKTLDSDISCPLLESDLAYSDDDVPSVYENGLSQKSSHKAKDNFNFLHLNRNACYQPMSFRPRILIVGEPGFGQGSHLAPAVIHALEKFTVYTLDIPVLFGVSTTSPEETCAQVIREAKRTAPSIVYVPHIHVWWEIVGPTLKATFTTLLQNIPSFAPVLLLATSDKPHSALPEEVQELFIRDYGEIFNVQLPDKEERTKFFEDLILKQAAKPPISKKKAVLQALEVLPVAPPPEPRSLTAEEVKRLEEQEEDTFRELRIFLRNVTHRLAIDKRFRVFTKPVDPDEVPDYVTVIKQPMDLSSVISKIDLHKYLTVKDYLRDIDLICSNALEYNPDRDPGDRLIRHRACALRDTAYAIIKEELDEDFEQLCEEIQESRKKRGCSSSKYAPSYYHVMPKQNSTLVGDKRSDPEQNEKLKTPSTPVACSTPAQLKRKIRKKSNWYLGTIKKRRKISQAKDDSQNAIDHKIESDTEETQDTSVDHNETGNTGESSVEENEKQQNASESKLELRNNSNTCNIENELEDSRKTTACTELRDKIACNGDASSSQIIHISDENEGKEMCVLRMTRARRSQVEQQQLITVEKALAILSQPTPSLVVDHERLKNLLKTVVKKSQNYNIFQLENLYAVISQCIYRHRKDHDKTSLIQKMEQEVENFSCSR
T1 sequence (B2RXH2 whole entry): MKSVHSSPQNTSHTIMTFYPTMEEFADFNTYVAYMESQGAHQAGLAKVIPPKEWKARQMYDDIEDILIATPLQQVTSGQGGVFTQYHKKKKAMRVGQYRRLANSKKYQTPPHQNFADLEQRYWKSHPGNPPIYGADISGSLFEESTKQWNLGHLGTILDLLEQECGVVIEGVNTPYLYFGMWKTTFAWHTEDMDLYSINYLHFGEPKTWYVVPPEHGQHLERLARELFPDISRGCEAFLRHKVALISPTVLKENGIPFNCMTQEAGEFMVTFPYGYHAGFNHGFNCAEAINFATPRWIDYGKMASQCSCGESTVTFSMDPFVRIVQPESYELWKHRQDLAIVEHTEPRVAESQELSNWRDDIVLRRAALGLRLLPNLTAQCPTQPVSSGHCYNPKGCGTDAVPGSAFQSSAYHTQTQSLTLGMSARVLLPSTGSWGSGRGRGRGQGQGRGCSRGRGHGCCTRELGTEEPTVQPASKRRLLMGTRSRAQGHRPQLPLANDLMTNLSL
T8 sequence (P05177 whole entry): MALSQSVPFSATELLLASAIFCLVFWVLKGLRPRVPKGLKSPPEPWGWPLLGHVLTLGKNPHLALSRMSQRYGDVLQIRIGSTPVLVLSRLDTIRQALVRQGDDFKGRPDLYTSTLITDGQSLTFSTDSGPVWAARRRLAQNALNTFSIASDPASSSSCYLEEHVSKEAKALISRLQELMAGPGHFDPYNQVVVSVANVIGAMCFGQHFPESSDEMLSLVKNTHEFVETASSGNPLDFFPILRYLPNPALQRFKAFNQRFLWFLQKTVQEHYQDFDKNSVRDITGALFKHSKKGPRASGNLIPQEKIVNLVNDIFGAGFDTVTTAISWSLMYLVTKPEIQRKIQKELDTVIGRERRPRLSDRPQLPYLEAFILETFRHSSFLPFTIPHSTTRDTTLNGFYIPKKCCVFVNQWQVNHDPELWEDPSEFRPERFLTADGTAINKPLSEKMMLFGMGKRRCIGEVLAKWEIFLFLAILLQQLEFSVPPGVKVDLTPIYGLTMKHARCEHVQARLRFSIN
T3 sequence (Q9H3R0 whole entry): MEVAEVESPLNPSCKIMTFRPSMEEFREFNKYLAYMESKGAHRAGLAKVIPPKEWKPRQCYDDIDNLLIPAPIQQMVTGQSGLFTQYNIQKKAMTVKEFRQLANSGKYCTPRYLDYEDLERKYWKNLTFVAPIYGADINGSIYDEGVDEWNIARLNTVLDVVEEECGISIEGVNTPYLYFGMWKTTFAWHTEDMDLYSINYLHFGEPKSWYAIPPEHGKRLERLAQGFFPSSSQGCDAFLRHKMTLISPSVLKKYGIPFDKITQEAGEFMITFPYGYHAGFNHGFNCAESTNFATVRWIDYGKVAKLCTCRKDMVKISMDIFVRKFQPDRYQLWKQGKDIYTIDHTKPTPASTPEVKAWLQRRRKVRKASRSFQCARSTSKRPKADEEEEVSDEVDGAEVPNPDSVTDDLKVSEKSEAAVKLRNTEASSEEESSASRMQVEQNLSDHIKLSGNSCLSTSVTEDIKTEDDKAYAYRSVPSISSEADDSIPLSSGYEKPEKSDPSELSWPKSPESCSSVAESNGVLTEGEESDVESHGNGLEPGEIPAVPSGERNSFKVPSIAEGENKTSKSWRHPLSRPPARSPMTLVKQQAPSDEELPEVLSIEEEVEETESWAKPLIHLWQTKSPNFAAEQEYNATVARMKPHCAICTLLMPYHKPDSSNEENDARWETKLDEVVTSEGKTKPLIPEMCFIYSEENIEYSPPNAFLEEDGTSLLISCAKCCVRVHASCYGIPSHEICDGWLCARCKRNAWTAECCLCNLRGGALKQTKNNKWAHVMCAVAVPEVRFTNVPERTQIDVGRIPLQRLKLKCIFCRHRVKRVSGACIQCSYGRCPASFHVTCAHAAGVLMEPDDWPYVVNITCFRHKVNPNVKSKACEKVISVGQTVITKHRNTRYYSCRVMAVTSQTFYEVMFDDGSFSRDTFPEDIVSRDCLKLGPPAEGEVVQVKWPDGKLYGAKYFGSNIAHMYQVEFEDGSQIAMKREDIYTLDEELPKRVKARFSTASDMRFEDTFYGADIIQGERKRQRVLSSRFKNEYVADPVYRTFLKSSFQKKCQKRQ

`COc1cc2c(NC3CCN(C)CC3)cc(-c3ccc(C)o3)nc2cc1OCCCN1CCCC1` [CM-272, 6-methoxy-2-(5-methyl-2-furyl)-N-(1-methyl-4-piperidyl)-7-(3-pyrrolidin-1-ylpropoxy)quinolin-4-amine]: the inhibition at 10 µM was determined as 1% against JMJD2E; 8% on BRDT(BD1); 12% on JMJD2C; 56% against BRD4(BD1+BD2); 0% on TRIM24; 0% on ATAD2A. This compound displayed an inhibition at 10 µM against PRMT5 of 6%. This compound returned a GI50 in the data set with 1205-LU of 121 nM. In addition, the IC50 against BRD4(BD1+BD2) (BPS) came out at 1500 nM; on DNMT3A, 85 nM; against GLP, 2 nM. Also, on GLP (10 µM), the “% Inhibition at 10 μM: GLP” value is 100% and 75%. The “P450s Inhibition: 1A2” value on cytochrome P450 1A2 is less than 10%.

On to `COc1cc2c(NCC3CCN(C)CC3)cc(-c3ccc(C)o3)nc2cc1OCCCN1CCCC1` [CM-579, 6-methoxy-2-(5-methyl-2-furyl)-N-[(1-methyl-4-piperidyl)methyl]-7-(3-pyrrolidin-1-ylpropoxy)quinolin-4-amine], for which the inhibition at 10 µM against JMJD2E was 8%; against BRDT(BD1) it was 0%; against JMJD2C, 13%; against BRD4(BD1+BD2) it was 0%; at TRIM24, 0%; against ATAD2A, 0%. Besides, the inhibition at 10 µM against PRMT5 was found to be 0%. This compound came in with a GI50 in the data set with 1205-LU of 20 nM. Also, the IC50 at DNMT3A is 92 nM; on GLP, more than 10000 nM. The “P450s Inhibition: 1A2” value on cytochrome P450 1A2 is on record as less than 10%.

The inhibition is how much of the control response was suppressed. Low readings indicate little suppression, high ones strong suppression. By GI50 is commonly meant the concentration at which growth is held to half of that of the control. A word on the IC50: it is the concentration needed to halve the response being measured. Low values mean greater potency, high ones weaker potency. As usually defined, the % Inhibition is the relative decrease from the control value, in per cent. Low values mean a response near the control, high ones a response far below the control.

The values above are taken from paper PMC5458547, “Discovery of first-in-class reversible dual small molecule inhibitors against G9a and DNMTs in hematological malignancies” (Nature Communications, 2017).
